What was measured:
Type in all cases: cell-based
[1] = system: Klebsiella pneumoniae NCTC 9633; assay: Fluorescent signal intensity of stained bacteria (microscope, ImageJ)
Description: Firstly, all different bacterial strains were grown overnight in LB at 37° C. and 200 rpm. The mid-exponential phase cultures of bacterial strains were then diluted to a concentration of 10^5 cells·mL^−1 in LB. SYBR Green I, SYTO 13/9 and DiSC3(5) dyes were prepared by diluting them from their stocks.
The three dyes (SYBR Green I, SYTO 13/9 and DiSC3(5)) were then added in the final concentrations of 3 μM—DiSC3(5), 3 μM—SYTO 13/9 and 10× (diluted from the stock 10,000×)—SYBR Green I to the different bacterial strains and the strains incubated […] at 37° C. for 10 minutes in the dark.
The bacterial strains were then put on a haemocytometer and visualised under a microscope with fluorescent filters corresponding to individual dyes. Images were taken for all the bacterial strains at the same intensity of the incident laser light and 10-15 images were taken for each of the bacterial strains.
The images were then analysed on ImageJ software by first converting the coloured images to monochromatic images, then selecting an area with cells and analysing the plot profile. The intensity of the peaks and background from the image was then recorded.
A similar protocol to Example 1 was followed, with the addition of […] of FM 4-64.

Enterococcus faecium = assay: Qualitative dye staining on agarose pads (EVOS M7000); parameters: key to Relative fluorescent intensity: Very high: If the cells looked twice as big in the fluorescent channel, it was marked as having “very high” relative fluorescent intensity; High: if the cells looked bigger in the fluorescent channel, it was marked as having “high” relative fluorescent intensity; Medium: If the cells looked almost the same size in the fluorescent channel and the bright field, it was marked as having “medium” relative fluorescent intensity; Low: If the cells looked smaller in the fluorescent channel as compared to the brightfield but still the whole cell was visible, it was marked as having “low” relative fluorescent intensity; Negligible: If only a few traces of a cell was visible in the fluorescent channel, it was marked as having “negligible” relative fluorescent intensity; details: DiSC3(5) 3 μM, SYBR Green I 10×, SYTO 13 3 μM, FM4-64 15 μM
Enterococcus spp. = assay: as above; parameters: key to Relative fluorescent intensity: Very high: If the cells looked twice as big in the fluorescent channel, it was marked as having “very high” relative fluorescent intensity; High: if the cells looked bigger in the fluorescent channel, it was marked as having “high” relative fluorescent intensity; Medium: If the cells looked almost the same size in the fluorescent channel and the bright field, it was marked as having “medium” relative fluorescent intensity; Low: If the cells looked smaller in the fluorescent channel as compared to the brightfield but still the whole cell was visible, it was marked as having “low” relative fluorescent intensity; Negligible: If only a few traces of a cell was visible in the fluorescent channel, it was marked as having “negligible” relative fluorescent intensity; details: Table 6 thresholds, Entercoccus, DiSC3(5) 3 μM, SYBR Green I 10×, SYTO 13 3 μM, FM4-64 15 μM
[2] = Table 1, 3 μM DiSC3(5), 3 μM SYTO 13/9, 10× SYBR Green I, 37° C. for 10 minutes, background subtracted
[3] = Table 3, DiSC3(5) 3 uM, SYBR Green 10x, SYTO 13/9 3 uM, FM 4-64 15 uM
[4] = Table 7 commercial strain Enterococcus faecium NCTC 7171
[5] = Table 7 commercial strain Enterococcus faecium NCTC 13923
[6] = Table 8 sample Enterococcus faecium (011)
[7] = Table 8 sample Enterococcus faecium (012)
[8] = Table 8 sample Enterococcus faecium (013)

## CCCN1C(=CC=CC=Cc2sc3ccccc3[n+]2CCC)Sc2ccccc21.[I-] [DiSC3(5), 3,3′-Dipropylthiadicarbocyanine Iodide]
[1]; [2]
  fluorescent signal intensity value, Average: 16.70
[1]; [3]
  fluorescent signal intensity value, Average: 16.70
Enterococcus faecium; [4]
  Percentage of cells stained: Almost all
  Relative fluorescent intensity: Low
Enterococcus faecium; [5]
  Percentage of cells stained: Almost all
  Relative fluorescent intensity: Low
Enterococcus faecium; [6]
  Percentage of cells stained: Almost all
  Relative fluorescent intensity: Low
Enterococcus faecium; [7]
  Percentage of cells stained: Almost all
  Relative fluorescent intensity: Low
Enterococcus faecium; [8]
  Percentage of cells stained: Half
  Relative fluorescent intensity: Low
Enterococcus spp.
  Percentage of cells stained: Half
  Relative fluorescent intensity: low and Low

## CCN(CC)c1ccc(C=CC=CC=Cc2cc[n+](CCC[N+](CC)(CC)CC)cc2)cc1.[Br-].[Br-] [FM 4-64, N-(3-Triethylammoniumpropyl)-4-(6-(4-(Diethylamino) Phenyl) Hexatrienyl) Pyridinium Dibromide]
[1]; [3]
  fluorescent signal intensity value, Average: 30.00
Enterococcus faecium; [4]
  Percentage of cells stained: Half
  Relative fluorescent intensity: Medium
Enterococcus faecium; [5]
  Percentage of cells stained: Half
  Relative fluorescent intensity: Medium
Enterococcus faecium; [6]
  Percentage of cells stained: Half
  Relative fluorescent intensity: Medium
Enterococcus faecium; [7]
  Percentage of cells stained: Half
  Relative fluorescent intensity: Medium
Enterococcus faecium; [8]
  Percentage of cells stained: Almost all
  Relative fluorescent intensity: Medium
Enterococcus spp.
  Percentage of cells stained: Almost all
  Relative fluorescent intensity: medium
Enterococcus spp.; listed as FM4-64
  Relative fluorescent intensity: Medium

## CCCN(CCCN(C)C)c1cc(/C=C2/Sc3ccccc3N2C)c2ccccc2[n+]1-c1ccccc1 [SYBR Green I, N′,N′-dimethyl-N-[4-[(E)-(3-methyl-1,3-benzothiazol-2-ylidene)methyl]-1-phenylquinolin-1-ium-2-yl]-N-propylpropane-1,3-diamine]
[1]; [2]
  fluorescent signal intensity value, Average: 21.87
[1]; [3]
  fluorescent signal intensity value, Average: 21.87
Enterococcus faecium; [4]
  Percentage of cells stained: Almost all
  Relative fluorescent intensity: High
Enterococcus faecium; [5]
  Percentage of cells stained: Almost all
  Relative fluorescent intensity: High
Enterococcus faecium; [6]
  Percentage of cells stained: Almost all
  Relative fluorescent intensity: High
Enterococcus faecium; [7]
  Percentage of cells stained: Almost all
  Relative fluorescent intensity: High
Enterococcus faecium; [8]
  Percentage of cells stained: Almost all
  Relative fluorescent intensity: High
Enterococcus spp.
  Percentage of cells stained: Almost all
  Relative fluorescent intensity: medium to high
Enterococcus spp.; listed as SYBR Green
  Relative fluorescent intensity: Medium-High
